According to ChEMBL document CHEMBL1201862, “PubChem BioAssay data set” (2004):
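Briefly, cells in 96-well plates were exposed to five compound concentrations for 48 h, and endpoints were estimated by linear interpolation. Abbreviation: GI50, concentration required for 50% inhibition of growth.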 Active and inactive are the calls of the source. Cut-off read from the data, not from the text of the source: active = GI50 up to about 1.1 µM and inactive = higher.

Columns and labels:
Assay in all cases: inhibition of tumour cell growth, NCI panel, 48 h
[1] = system: MOLT-4
[2] = system: SF-539
[3] = system: SF-268
[4] = system: LXFL 529
[5] = system: UO-31
[6] = system: SNB-75
[7] = system: UACC-257
[8] = system: COLO 205
[9] = system: SNB-19
[10] = system: EKVX
[11] = system: OVCAR-5
[12] = system: SK-MEL-2
[13] = system: HOP-62
[14] = system: HT-29
[15] = system: HL-60
[16] = system: A498

SMILES: Cn1cc(NC(=O)c2cc(NC(=O)CCCCCCCCC(=O)Nc3cc(C(=O)Nc4cc(C(=O)NCCC(N)N)n(C)c4)n(C)c3)cn2C)cc1C(=O)NCCC(=N)N
- GI50 [1]: 19.9 µM (inactive)
- GI50 [2]: 22.6 µM (inactive)
- GI50 [3]: 20.5 µM (inactive)
- GI50 [4]: 27.2 µM (inactive)
- GI50 [5]: 28.2 µM (inactive)
- GI50 [6]: 18.1 µM (inactive)
- GI50 [7]: 13.7 µM (inactive)
- GI50 [8]: 20 µM (inactive)
- GI50 [9]: 21.4 µM (inactive)
- GI50 [10]: 20.3 µM (inactive)
- GI50 [11]: 21.4 µM (inactive)
- GI50 [12]: 19.2 µM (inactive)
- GI50 [13]: 33 µM (inactive)
- GI50 [14]: 18.8 µM (inactive)

SMILES: COc1cc(C(C#N)NNC(=O)c2ccccc2O)ccc1O (stereo not drawn)
- GI50 [1]: 6.15 µM (inactive)
- GI50 [2]: 3 µM (inactive)
- GI50 [3]: 0.368 µM (active)
- GI50 [4]: 1.6 µM (inactive)
- GI50 [5]: 0.701 µM (active)
- GI50 [6]: 0.356 µM (active)
- GI50 [7]: 6.35 µM (inactive)
- GI50 [8]: 28.6 µM (inactive)
- GI50 [11]: 10.7 µM (inactive)
- GI50 [15]: 2.45 µM (inactive)
- GI50 [12]: 2.48 µM (inactive)
- GI50 [13]: 4.78 µM (inactive)
- GI50 [14]: 23.4 µM (inactive)

SMILES: CCCCCCCCCC(=O)CC(=O)c1ccc(O)cc1O
- GI50 [1]: 17.6 µM (inactive)
- GI50 [2]: 26.5 µM (inactive)
- GI50 [3]: 40.8 µM (inactive)
- GI50 [4]: 30.5 µM (inactive)
- GI50 [5]: 19.7 µM (inactive)
- GI50 [6]: 33.6 µM (inactive)
- GI50 [7]: 28.8 µM (inactive)
- GI50 [8]: > 100 µM (inactive)
- GI50 [9]: 37 µM (inactive)
- GI50 [10]: 25.9 µM (inactive)
- GI50 [11]: 21.1 µM (inactive)
- GI50 [15]: 19 µM (inactive)
- GI50 [12]: 18.6 µM (inactive)
- GI50 [13]: 19.8 µM (inactive)
- GI50 [14]: 35.9 µM (inactive)

SMILES: O=C(NCCNCCO)N/N=C/c1ccccc1
- GI50 [1]: > 100 µM (inactive)
- GI50 [2]: > 100 µM (inactive)
- GI50 [3]: > 100 µM (inactive)
- GI50 [4]: > 100 µM (inactive)
- GI50 [6]: > 100 µM (inactive)
- GI50 [7]: > 100 µM (inactive)
- GI50 [9]: > 100 µM (inactive)
- GI50 [15]: 79.3 µM (inactive)
- GI50 [12]: > 100 µM (inactive)
- GI50 [14]: > 100 µM (inactive)

SMILES: O=c1cccccc1NCCNc1cccccc1=O
- GI50 [1]: > 100 µM (inactive)
- GI50 [2]: > 100 µM (inactive)
- GI50 [3]: > 100 µM (inactive)
- GI50 [4]: > 100 µM (inactive)
- GI50 [5]: > 100 µM (inactive)
- GI50 [6]: > 10 µM (inactive)
- GI50 [7]: > 100 µM (inactive)
- GI50 [8]: > 100 µM (inactive)
- GI50 [9]: > 100 µM (inactive)
- GI50 [10]: > 100 µM (inactive)
- GI50 [11]: > 100 µM (inactive)
- GI50 [15]: > 100 µM (inactive)
- GI50 [12]: > 100 µM (inactive)
- GI50 [13]: > 100 µM (inactive)
- GI50 [14]: > 100 µM (inactive)

SMILES: Cc1c(O)c(O)cc[n+]1C1OC(CO)C(O)C1O (stereo not drawn)
- GI50 [3]: > 100 µM (inactive)
- GI50 [4]: 33.1 µM (inactive)
- GI50 [5]: > 100 µM (inactive)
- GI50 [6]: > 100 µM (inactive)
- GI50 [7]: > 100 µM (inactive)
- GI50 [8]: > 100 µM (inactive)
- GI50 [9]: > 100 µM (inactive)
- GI50 [10]: > 100 µM (inactive)
- GI50 [11]: > 100 µM (inactive)
- GI50 [12]: > 100 µM (inactive)
- GI50 [14]: > 100 µM (inactive)
- GI50 [16]: > 100 µM (inactive)

SMILES: COc1cc2ccc3c4cc(OC)c(OC(C)C)cc4cnc3c2cc1OC
- GI50 [1]: > 100 µM (inactive)
- GI50 [2]: > 100 µM (inactive)
- GI50 [3]: > 100 µM (inactive)
- GI50 [4]: > 100 µM (inactive)
- GI50 [5]: > 100 µM (inactive)
- GI50 [6]: > 100 µM (inactive)
- GI50 [7]: > 100 µM (inactive)
- GI50 [8]: > 100 µM (inactive)
- GI50 [9]: > 100 µM (inactive)
- GI50 [10]: > 100 µM (inactive)
- GI50 [11]: > 100 µM (inactive)
- GI50 [15]: > 100 µM (inactive)
- GI50 [12]: > 100 µM (inactive)
- GI50 [13]: > 100 µM (inactive)
- GI50 [14]: > 100 µM (inactive)

SMILES: COC(=O)C1=C(C)N(NC(=O)c2cccc(Cl)c2)C(C)(O)C12CCOC2=O (stereo not drawn)
- GI50 [1]: > 100 µM (inactive)
- GI50 [2]: > 100 µM (inactive)
- GI50 [3]: > 100 µM (inactive)
- GI50 [4]: > 100 µM (inactive)
- GI50 [5]: > 100 µM (inactive)
- GI50 [6]: > 100 µM (inactive)
- GI50 [7]: > 100 µM (inactive)
- GI50 [9]: > 100 µM (inactive)
- GI50 [10]: 58.7 µM (inactive)
- GI50 [11]: > 100 µM (inactive)
- GI50 [12]: > 100 µM (inactive)
- GI50 [13]: > 100 µM (inactive)
- GI50 [14]: > 100 µM (inactive)
- GI50 [16]: > 100 µM (inactive)
